Experimental findings from US8664391B2, “Amide compounds as boosters of antivirals” (Janssen R&D Ireland Ltd, priority 2008, dated 2014) are described below.

Read-outs that look alike come from different tables or passages of the source.

In one data set the target is T1, CYP1A2 (Homo sapiens, UniProt P05177).
T1 construct: host or cells: E. coli
T1 sequence (P05177 1-516): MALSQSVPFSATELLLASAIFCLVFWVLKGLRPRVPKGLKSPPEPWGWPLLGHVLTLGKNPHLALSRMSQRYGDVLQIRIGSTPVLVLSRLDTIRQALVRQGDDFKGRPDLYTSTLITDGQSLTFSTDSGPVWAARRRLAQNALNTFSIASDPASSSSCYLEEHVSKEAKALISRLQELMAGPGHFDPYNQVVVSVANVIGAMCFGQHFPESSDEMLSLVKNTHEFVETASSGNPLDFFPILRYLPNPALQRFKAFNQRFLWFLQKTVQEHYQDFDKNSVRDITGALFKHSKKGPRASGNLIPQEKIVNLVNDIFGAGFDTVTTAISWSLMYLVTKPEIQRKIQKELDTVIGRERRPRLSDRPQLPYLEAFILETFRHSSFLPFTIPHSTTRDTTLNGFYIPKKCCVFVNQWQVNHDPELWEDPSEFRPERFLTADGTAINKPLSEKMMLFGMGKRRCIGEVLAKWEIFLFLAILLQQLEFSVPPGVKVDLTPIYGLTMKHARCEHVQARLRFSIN
Nature of the data set: CYP450 inhibition, fluorescent substrate assay, CYP1A2. The data set is classed as biochemical. The settings on record: E. coli expressed CYP1A2, pH 7.4, probe CEC (5 μM), 10 μM test compound, substrate CEC 5 μM, read-out: 1A2-CEC % inh. The method in brief: (§1)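 Test compounds were preincubated for 5 min at 37° C with CYP P450 enzyme and an NADPH generating system before phosphate-buffered (pH 7.4) fluorogenic substrate was added. Reactions were stopped with acetonitrile and the fluorescent product was read on a plate reader. Inhibition appears as loss of fluorescent signal.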

The target in a further data set is T2, CYP2D6 (Homo sapiens, UniProt P10635).
T2 construct: host or cells: E. coli
The data set is described as follows: CYP450 inhibition, fluorescent substrate assay, CYP2D6. Particulars: E. coli expressed CYP2D6, pH 7.4, probe AMMC (3 μM), 10 μM test compound, substrate AMMC 3 μM, read-out: 2D6-AMMC % inh. The class given is biochemical. Summed up: as §1

The target in another data set is CYP2C9 (Homo sapiens, UniProt P11712). The data set is described as follows: CYP450 inhibition, fluorescent substrate assay, CYP2C9. The class given is biochemical. Particulars: pH 7.4. The method in brief: as §1
In data set [1] the test system is wild-type HIV-1 IIIB strain. The data set is described as follows: Antiviral activity in MT4 LTR-EGFP cellular assay. Particulars: Human immunodeficiency virus 1, 72 h; wild-type HIV-1 IIIB, MT4 LTR-EGFP cells, three days after infection; pEC50 = -log10(EC50); read-out: Antiviral Activity IIIB pEC50 (converted). The class given is cell-based.
The target in another data set is T3, CYP2C19 (Homo sapiens, UniProt P33261).
T3 construct: host or cells: E. coli
The data set is described as follows: CYP450 inhibition, fluorescent substrate assay, CYP2C19. The class given is biochemical. The settings on record: E. coli expressed CYP2C19, pH 7.4, probe CEC (25 μM), 10 μM test compound, substrate CEC 25 μM, read-out: 2C19-CEC % inh. Summed up:
as §1

Another data set deals with T4, CYP3A4 (Homo sapiens, UniProt P08684).
T4 construct: host or cells: E. coli
Nature of the data set: CYP450 inhibition, fluorescent substrate assay, CYP3A4. The class given is biochemical. Particulars: 10 μM test compound; for inhibition at 10 min, 10 μM: E. coli expressed CYP3A4, pH 7.4, probe DBF (1 μM), substrate DBF 1 μM, read-out: 3A4-DBF % inh. Summed up:
as §1

A short description of data set [2]: Cytotoxicity in mock-infected MT4 CMV-EGFP cells. The settings on record: human, pCC50 = -log10(CC50), read-out: Toxicity MT4 pCC50 (converted). The data set is classed as cell-based.
A further data set can be described thus: in vitro. The class given is in vitro ADME, human. The settings on record: human, pH 7.4.
[3] abbreviates: E. coli expressed CYP3A4, pH 7.4, probe BFC (150 μM), substrate BFC 150 μM, read-out: 3A4-BFC % inh.
Where [4] appears, read: E. coli expressed CYP3A4, pH 7.4, probe BQ (60 μM), substrate BQ 60 μM, read-out: 3A4-BQ % inh.

T4 sequence (P08684 whole entry): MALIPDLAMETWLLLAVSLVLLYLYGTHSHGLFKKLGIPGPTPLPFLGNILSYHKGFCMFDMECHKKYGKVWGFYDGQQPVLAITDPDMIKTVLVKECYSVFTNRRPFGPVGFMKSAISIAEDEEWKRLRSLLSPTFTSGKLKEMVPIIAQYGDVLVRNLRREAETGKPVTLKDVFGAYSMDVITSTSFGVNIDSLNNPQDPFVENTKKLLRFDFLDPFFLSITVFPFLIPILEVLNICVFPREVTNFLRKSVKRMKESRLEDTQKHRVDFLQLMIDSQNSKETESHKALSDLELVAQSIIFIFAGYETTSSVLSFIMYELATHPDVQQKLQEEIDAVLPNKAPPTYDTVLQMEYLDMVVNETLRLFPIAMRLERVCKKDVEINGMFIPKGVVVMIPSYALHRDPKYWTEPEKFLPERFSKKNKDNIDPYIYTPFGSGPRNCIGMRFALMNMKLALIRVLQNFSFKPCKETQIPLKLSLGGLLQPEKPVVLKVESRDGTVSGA
T2 sequence (P10635 whole entry): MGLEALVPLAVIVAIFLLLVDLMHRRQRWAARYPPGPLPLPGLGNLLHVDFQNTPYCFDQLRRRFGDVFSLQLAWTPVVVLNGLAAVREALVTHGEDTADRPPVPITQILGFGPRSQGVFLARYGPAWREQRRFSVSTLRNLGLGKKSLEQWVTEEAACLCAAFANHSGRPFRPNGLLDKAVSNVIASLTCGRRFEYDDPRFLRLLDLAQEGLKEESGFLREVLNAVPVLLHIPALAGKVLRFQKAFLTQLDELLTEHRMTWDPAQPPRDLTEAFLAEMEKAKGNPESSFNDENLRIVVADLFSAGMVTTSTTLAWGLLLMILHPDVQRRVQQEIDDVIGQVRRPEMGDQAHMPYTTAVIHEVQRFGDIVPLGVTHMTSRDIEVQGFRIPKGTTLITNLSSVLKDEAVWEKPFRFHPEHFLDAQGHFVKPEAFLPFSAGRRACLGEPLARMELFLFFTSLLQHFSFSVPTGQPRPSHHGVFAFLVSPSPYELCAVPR
Chain of CYP2C9 (P11712 whole entry): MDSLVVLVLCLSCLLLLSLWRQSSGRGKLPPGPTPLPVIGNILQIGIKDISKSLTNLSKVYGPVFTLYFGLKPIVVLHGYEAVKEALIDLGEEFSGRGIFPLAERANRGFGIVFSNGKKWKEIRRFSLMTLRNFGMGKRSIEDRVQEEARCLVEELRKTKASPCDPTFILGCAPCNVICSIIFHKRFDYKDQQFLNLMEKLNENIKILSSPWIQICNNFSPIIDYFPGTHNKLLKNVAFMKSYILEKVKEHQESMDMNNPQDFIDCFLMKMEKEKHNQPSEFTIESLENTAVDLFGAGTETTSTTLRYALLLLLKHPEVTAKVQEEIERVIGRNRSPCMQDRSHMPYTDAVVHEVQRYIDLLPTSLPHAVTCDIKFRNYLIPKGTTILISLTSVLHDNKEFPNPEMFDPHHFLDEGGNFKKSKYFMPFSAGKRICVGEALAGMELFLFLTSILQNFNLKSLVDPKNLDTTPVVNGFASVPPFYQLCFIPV
T3 sequence (P33261 whole entry): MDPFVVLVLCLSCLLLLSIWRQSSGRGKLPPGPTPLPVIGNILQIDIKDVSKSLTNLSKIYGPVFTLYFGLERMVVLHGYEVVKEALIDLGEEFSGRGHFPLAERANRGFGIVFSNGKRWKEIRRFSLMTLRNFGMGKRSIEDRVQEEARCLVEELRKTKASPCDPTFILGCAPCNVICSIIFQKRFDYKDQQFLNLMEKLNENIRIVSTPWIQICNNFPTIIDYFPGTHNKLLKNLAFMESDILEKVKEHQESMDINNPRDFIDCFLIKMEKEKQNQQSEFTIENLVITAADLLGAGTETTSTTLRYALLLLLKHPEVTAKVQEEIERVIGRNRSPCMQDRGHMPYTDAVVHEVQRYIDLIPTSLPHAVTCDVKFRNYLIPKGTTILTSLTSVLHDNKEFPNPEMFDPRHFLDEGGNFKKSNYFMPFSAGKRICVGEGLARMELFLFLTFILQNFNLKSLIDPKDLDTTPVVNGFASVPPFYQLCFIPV

On to `COc1cccc(C(=O)N(CC(C)C)C[C@@H](O)[C@H](Cc2ccccc2)NC(=O)OCc2cncs2)c1` [Compound C7], for which the inhibition at 15 min, 10 μM on CYP1A2 worked out at 13%. Moreover, the inhibition at 45 min, 10 μM at CYP2D6 came out at 45%. For the same compound, the inhibition at 30 min, 10 μM on CYP2C9 was found to be 97%; on CYP2C19, 89%; on CYP3A4 (setting [3]), 92%; at CYP3A4 (setting [4]), 80%. Further, in data set [1], the EC50 is 83.2 µM. In addition, the inhibition at 10 min, 10 μM at CYP3A4 is 94%. Further, the CC50 at 3 days in data set [2] is 70.8 µM. In addition, in “in vitro”, the recovery at 15 min, 5 μM was 56%.
`CC(C)CN(C[C@@H](O)[C@H](Cc1ccccc1)NC(=O)OCc1cncs1)C(=O)c1ccc(C(F)(F)F)cc1` [Compound C4]: the inhibition at 15 min, 10 μM at CYP1A2 was 62%. Further, the inhibition at 45 min, 10 μM at CYP2D6 worked out at 79%. For the same compound, the inhibition at 30 min, 10 μM worked out at 99% against CYP2C9, 92% at CYP2C19, 95% at CYP3A4 (setting [3]) and 85% at CYP3A4 (setting [4]). In addition, the EC50 in data set [1] is 31.6 µM. Moreover, the inhibition at 10 min, 10 μM on CYP3A4 worked out at 99%. In addition, in data set [2], the CC50 at 3 days was 39.8 µM. In the data set “in vitro”, the recovery at 15 min, 5 μM is 57%.
Take `CC(C)(C)CN(C[C@@H](O)[C@H](Cc1ccccc1)NC(=O)OCc1cncs1)C(=O)c1ccncc1` [Compound C22]: at CYP1A2, the inhibition at 15 min, 10 μM was 0%. Further, on CYP2D6, the inhibition at 45 min, 10 μM was found to be 62%. The inhibition at 30 min, 10 μM at CYP2C9 was 69%; at CYP2C19, 60%; at CYP3A4 (setting [3]) it was 93%; at CYP3A4 (setting [4]) it was 74%. Also, the EC50 in data set [1] is greater than 100 µM. In addition, at CYP3A4, the inhibition at 10 min, 10 μM turned out to be 89%. Besides, the CC50 at 3 days in data set [2] is greater than 100 µM. Also, the recovery at 15 min, 5 μM in “in vitro” was determined as 77%.
For `CC(C)CN(C[C@@H](O)[C@H](Cc1ccccc1)NC(=O)OCc1cncs1)C(=O)c1ccc(Cl)cc1` [Compound C16], the inhibition at 15 min, 10 μM at CYP1A2 was 50%. In addition, on CYP2D6, the inhibition at 45 min, 10 μM was 43%. The inhibition at 30 min, 10 μM against CYP2C9 amounted to 97%; at CYP2C19, 90%; at CYP3A4 (setting [3]) it was 71%; at CYP3A4 (setting [4]), 82%. Also, in data set [1], the EC50 was 38.9 µM. Further, the inhibition at 10 min, 10 μM on CYP3A4 is 92%. Besides, the CC50 at 3 days in data set [2] was 40.7 µM. The same compound showed a recovery at 15 min, 5 μM in “in vitro” of 59%.
In the case of `CC(C)CN(C[C@@H](O)[C@H](Cc1ccccc1)NC(=O)OCc1cncs1)C(=O)c1cccnc1` [Compound C13], the inhibition at 15 min, 10 μM on CYP1A2 is 8%. The inhibition at 45 min, 10 μM at CYP2D6 was 64%. The inhibition at 30 min, 10 μM worked out at 95% at CYP2C9, 67% on CYP2C19, 81% at CYP3A4 (setting [3]) and 84% on CYP3A4 (setting [4]). In addition, in data set [1], the EC50 was greater than 100 µM. Moreover, on CYP3A4, the inhibition at 10 min, 10 μM came to 94%. Besides, the CC50 at 3 days in data set [2] was greater than 100 µM. In “in vitro”, this compound came in with a recovery at 15 min, 5 μM of 69%.
For the compound `CC(C)CN(C[C@@H](O)[C@H](Cc1ccccc1)NC(=O)OCc1cncs1)C(=O)c1ccc(F)cc1` [Compound C6], the inhibition at 15 min, 10 μM on CYP1A2 stood at 41%. Moreover, the inhibition at 45 min, 10 μM at CYP2D6 stood at 65%. For the same compound, the inhibition at 30 min, 10 μM on CYP2C9 is 96%; on CYP2C19 it was 94%; at CYP3A4 (setting [3]), 82%; at CYP3A4 (setting [4]) it was 83%. Also, the EC50 in data set [1] was 79.4 µM. Also, the inhibition at 10 min, 10 μM on CYP3A4 turned out to be 92%. The CC50 at 3 days in data set [2] is greater than 100 µM. In the data set “in vitro”, this compound registered a recovery at 15 min, 5 μM of 81%.
Take `CC(C)CN(C[C@@H](O)[C@H](Cc1ccccc1)NC(=O)OCc1cccnc1)C(=O)c1ccncc1` [Compound C20]: the inhibition at 15 min, 10 μM at CYP1A2 was determined as 6%. Besides, the inhibition at 45 min, 10 μM at CYP2D6 was 13%. The inhibition at 30 min, 10 μM at CYP2C9 is 63%; at CYP2C19, 41%; on CYP3A4 (setting [3]), 88%; at CYP3A4 (setting [4]), 66%. Further, the EC50 in data set [1] is greater than 100 µM. Moreover, the inhibition at 10 min, 10 μM on CYP3A4 stood at 85%. Further, in data set [2], the CC50 at 3 days was greater than 100 µM. The recovery at 15 min, 5 μM in “in vitro” amounted to 37%.
